Laboratory results reported in patent US4778799A, “Synergistic combination of flupirtin and non-steroidal antiphlogistic” (priority 1985, dated 1988).
Counter-ions that a name gives are not always drawn. Like-named read-outs stand apart in the source and are kept apart here.

What was measured:
[1] = antiphlogistic alone, per os, mouse; cited from earlier work
[2] = Acetic Acid-Writhing Test according to Koster et al., analgetic activity, per os; type: in vivo, white mouse (NMRI-Mouse); set-up: ED50: unit: mg/kg; details: for ED50: substance alone, 30 minutes after giving, linear regression; for factor for the increase in activity of the analgetic action in combination with Flupirtin: compared to analgetic side activity component of the pure antiphlogistic; for inhibition in vivo at 3 mg/kg: 3.0 mg/kg per os; for inhibition in vivo at 6 mg/kg: 6.0 mg/kg per os; for minimal effective dose: read-out: lowest analgetically effective dosage; for inhibition in vivo at 5 mg/kg: 5.0 mg/kg per os; for inhibition in vivo at 10 mg/kg: 10.0 mg/kg per os
Procedure: These investigations were carried out in the Acetic Acid Test (Writhing Test) on the white mouse.
Writhing According to Koster et al; Fed.
(§1) Animal: White Mouse (NMRI-Mouse); Application: per os
Writhing Test According to Koster et al.: Fed.
as §1
The pain reaction is expressed as a characteristic stretching of the animals ("writhing syndrome") which persists in irregular time intervals for a long period of time after the injection of the acetic acid. The dosage dependent suppression of the frequency of the stretching motion compared to an untreated control group is expressed in percent as analgetic effect. The evaluation is carried out by determination of the ED50 (Method of Linear Regression).
The acetic acid test is marked by the fact that not only is there detectable the effect of strong, central acting analgetics but also preponderantly peripherally acting analgetics-antipyretics and antiphlogistically active pharmaceuticals such as phenyl butazone, Indometacin and others. Therewith the effect in this procedure refers to a peripheral component of the analgesic.

[3] = Randall-Selitto Test, inflammation pain, per os; type: in vivo, albino rat (Sprague-Dawley); details: for ED50: Rattus norvegicus, po, 0.5 h
Procedure: Randall-Selitto-Test According to Randall, Selitto, Arch. int.
Animal: Albino-Rat (Sprague-Dawley); Application: per os
Sucker, Fuchs, Speiser, Pharmazeutische Technologie, Thieme-Verlag, Stuttgart, 1978. Short Description of the Pharmacological Test Methods Mentioned in the Application Randall-Selitto-Test (Inflammation Pain on the Rat)
In accordance with the method of Randall and Selitto (L. O. Randall, J. J. Selitto, Arch. int. Pharmacodyn., Volume 111, pages 409-418, 1957) rats were injected subplantarly with […] of a 20% (in dimineralized water) brewer's yeast suspension in the right hind paw. 21/2 hours later the test materials were dispensed and 30 minutes later the swelling pain measured with an Algesiemeter as pressure (in grams) on the inflamed paw (apparatus of Ugo Basile, Milan, Italy). As criteria there are considered the defensive reaction of the animals drawing the paw away and/or freeing themselves from the grip of the experimenters. The effect of the material was determined from the increase of the swelling pain compared to the untreated control group. The experimental procedure different from the original method in that the materials were applied 21/2 hours after the setting of edema and not simultaneously therewith. In this way there should be prevented the development of edema, being checked by a possible antiphlogistic action and the analgesy superimposed or simulated.
The ED50 was determined by means of the method of linear regression.

[4] = Bradykinin-Edema Test, antiphlogistic activity, per os; type: in vivo, albino rat (Sprague-Dawley); details: alone; for ED50: per os, printed in words: no ED50 defineable
Procedure: Bradykinin-Edema-Test Relying On and Modification of the Method of
Morsdorf et al (Arch. int. Pharmacodyn. 192,111-127 (1971). Animal:
Albino-rat (Sprague-Dawley):
Relying on the modification of the method of Morsdorf et al (Arch. int. Pharmacodyn. Volume 192, pages 111-127 (1971)) male rats received subplantarly in the right hind paw an injection of a 1% carrageenin solution (Carrageenin, Type IV, Sigma C-3889). One hour and four hours later there was determined the volume of the paw. To measure the volume there was used a volume meter (Rhema-Labortechnik Company, D-6238 Hofheim, Type 2060). Directly after the first measurement the test substance was dispensed by means of a gullet stomach catheter. There was calculated the increase in the swelling of the paw in the second measurement compared to the first measurement in absolute values (ml). The evaluation included the determination of the percent average value of the difference of the edema volumes one and four hours after receiving the inflammatory solution. The edema inhibiting action was calculated in percent from the edema volume measured by water displacement in comparison to the edema volume of the untreated inflammed control group.
As the single change in comparison to the Carrageenin-Edema Test in place of Carrageenin there was injected subplantarly Bradykinin (Sigma B 3259) 0.01 mg/animal in 0.1 ml of a 0.9% sodium chloride solution.

[5] = Ulcerogenic effect (stomach mucosa erosion) 24 hours after single oral dispensation; type: in vivo, albino rat (Sprague-Dawley); details: 24 mg/kg Diclofenac alone per os
Procedure: Testing of Ulcerogenic Effect Relying On the Method of Jahn and Adrian (Arzneimittelforschung, Volume 19 (1969) pages 36-52)
The experimental animals are male albino rats which are maintained under the usual conditions at 21°-22° C. After 48 hours of qualified feeding the test materials were dispensed perorally an increasing dosages. The animals were killed 24 hours later and the stomachs investigated for ulcerogenic changes according to the method of Munchow, Arzneimittelforschung, Volume 4 (1954), pages 341-344. (The size of the ulcers formed is measured are classified according to Munchow.)

[6] = Mus musculus, po, 0.5 h, per os
[7] = Mus musculus, po, read-out: Activity in %
[8] = alone, per os, 30 minutes after giving, linear regression, read-out: ED50
[9] = Mus musculus, po, 0.5 h, per os, read-out: ED50
[10] = Mus musculus, po, alone, 4.0 mg/kg per os, read-out: Activity in %

COc1ccc2c(c1)c(CC(=O)O)c(C)n2C(=O)c1ccc(Cl)cc1 [Indometacin]
LD50 [1]: 21 mg/kg
ED50 [2, 6]: 4.3 mg/kg
inhibition in vivo at 2 mg/kg [2, 7]: 17.3%
inhibition in vivo at 4 mg/kg [2, 7]: 50%
inhibition in vivo at 8 mg/kg [2, 7]: 86.3%
inhibition in vivo at 16 mg/kg [2, 7]: 82.1%
factor for the increase in activity of the analgetic action in combination with Flupirtin [2]: 2-15
ED50 [3, 8]: 2.77 mg/kg
Activity in % ([3]; alone, 1.0 mg/kg per os): 12.3%
Activity in % ([3]; alone, 2.0 mg/kg per os): 22.05%
Activity in % ([3]; alone, 4.0 mg/kg per os): 58.97%
Activity in % ([3]; alone, 8.0 mg/kg per os): 114.87%
Activity in % ([3]; alone, 16.0 mg/kg per os): 127.18%

COc1ccc2cc([C@H](C)C(=O)O)ccc2c1 [Naproxen]
inhibition in vivo at 0.38 mg/kg ([2]; Mus musculus, po, alone, 0.38 mg/kg per os): 21.7%
inhibition in vivo at 0.75 mg/kg ([2]; Mus musculus, po, alone, 0.75 mg/kg per os): 42%
inhibition in vivo at 1.5 mg/kg ([2]; Mus musculus, po, alone, 1.5 mg/kg per os): 43.4%
inhibition in vivo at 3 mg/kg ([2]; Mus musculus, po, alone): 53.8%
inhibition in vivo at 6 mg/kg ([2]; Mus musculus, po, alone): 70%
inhibition in vivo at 12 mg/kg ([2]; Mus musculus, po, alone, 12.0 mg/kg per os): 74.1%
inhibition in vivo at 24 mg/kg ([2]; Mus musculus, po, alone, 24.0 mg/kg per os): 54.5%
factor for the increase in activity of the analgetic action in combination with Flupirtin [2]: 2-15

CC1=C(CC(=O)O)c2cc(F)ccc2/C1=C\c1ccc([S+](C)[O-])cc1 (stereo not drawn) [Sulindac]
ED50 [2, 9]: 2.3 mg/kg
inhibition in vivo at 0.47 mg/kg [2, 7]: 29.6%
inhibition in vivo at 0.94 mg/kg [2, 7]: 44.6%
inhibition in vivo at 1.88 mg/kg [2, 7]: 49.7%
inhibition in vivo at 3.75 mg/kg [2, 7]: 56%
inhibition in vivo at 7.5 mg/kg [2, 7]: 61%
inhibition in vivo at 15 mg/kg [2, 7]: 71.1%
inhibition in vivo at 30 mg/kg [2, 7]: 72.3%
factor for the increase in activity of the analgetic action in combination with Flupirtin [2]: 2-15

CCOC(=O)Nc1ccc(NCc2ccc(F)cc2)nc1N [Flupirtin, 2-amino-3-carbethoxyamino-6-(fluoro-benzylamino)-pyridine]
ED50 [2, 9]: 44 mg/kg
minimal effective dose ([2]; Mus musculus, po, alone, per os): 2.24 mg/kg

CCOC(=O)Nc1ccc(NCc2ccc(F)cc2)nc1N [Flupirtin (Gluconate)]
ED50 [2, 6]: 43.9 mg/kg
inhibition in vivo at 0.56 mg/kg [2, 7]: 19.2%
inhibition in vivo at 1.12 mg/kg [2, 7]: 28%
inhibition in vivo at 2.24 mg/kg [2, 7]: 37.6%
inhibition in vivo at 4.47 mg/kg [2, 7]: 46.4%
inhibition in vivo at 8.93 mg/kg [2, 7]: 38.4%
inhibition in vivo at 17.85 mg/kg [2, 7]: 22.4%
inhibition in vivo at 35.7 mg/kg [2, 7]: 61.6%

O=C(O)Cc1ccccc1Nc1c(Cl)cccc1Cl [Diclofenac]
Activity in % (- = inhibiting) ([4]; 1.0 mg/kg per os): +2.9%
Activity in % (- = inhibiting) ([4]; 3.0 mg/kg per os): +8.6%
Activity in % (- = inhibiting) ([4]; 9.0 mg/kg per os): -31.4%
Activity in % (- = inhibiting) ([4]; 27.0 mg/kg per os): -45.7%
ED50 [4]: No ED50
ulcerogenic effect (stomach mucosa erosion) [5]: erosion of the stomach mucosa
ED50 [2, 6]: 12 mg/kg
inhibition in vivo at 3.9 mg/kg [2, 7]: 33.3%
inhibition in vivo at 7.8 mg/kg [2, 7]: 50%
inhibition in vivo at 15.6 mg/kg [2, 7]: 45.8%
inhibition in vivo at 31.25 mg/kg [2, 7]: 66%
inhibition in vivo at 62.5 mg/kg [2, 7]: 67.4%
inhibition in vivo at 125 mg/kg [2, 7]: 91.7%
minimal effective dose ([2]; Mus musculus, po): 3.9 mg/kg
ED50 ([2]; per os, 30 min): 12.1 mg/kg
ED50 [3, 8]: 2.95 mg/kg
Activity in % ([3]; alone, 1.0 mg/kg per os): 20.99%
Activity in % ([3]; alone, 3.0 mg/kg per os): 32.60%
Activity in % ([3]; alone, 10.0 mg/kg per os): 100.55%
Activity in % ([3]; alone, 30.0 mg/kg per os): 135.36%

Cc1cc(NC(=O)C2=C(O)c3ccccc3S(=O)(=O)N2C)no1 [Isoxicam]
ED50 [2, 9]: 6.6 mg/kg
inhibition in vivo at 3 mg/kg ([2]; Mus musculus, po, alone): 10.1%
inhibition in vivo at 4 mg/kg [2, 10]: 30.2%
inhibition in vivo at 5 mg/kg ([2]; Mus musculus, po, alone): 36.7%
inhibition in vivo at 6 mg/kg ([2]; Mus musculus, po, alone): 46%
inhibition in vivo at 7 mg/kg ([2]; Mus musculus, po, alone, 7.0 mg/kg per os): 51.1%
inhibition in vivo at 8 mg/kg ([2]; Mus musculus, po, alone, 8.0 mg/kg per os, read-out: Activity in %): 62.6%
inhibition in vivo at 10 mg/kg ([2]; Mus musculus, po, alone): 66.2%
factor for the increase in activity of the analgetic action in combination with Flupirtin [2]: 2-15

CCOC(=O)Nc1ccc(NCc2ccc(F)cc2)nc1N [Flupirtin (Hydrochloride)]
Activity in % (- = inhibiting) ([4]; 5.0 mg/kg per os): +4.6%
Activity in % (- = inhibiting) ([4]; 10.0 mg/kg per os): -25.0%
Activity in % (- = inhibiting) ([4]; 20.0 mg/kg per os): -13.6%
Activity in % (- = inhibiting) ([4]; 30.0 mg/kg per os): -2.3%
ED50 [4]: no ED50
ED50 [3]: 30.9 mg/kg
Activity in % ([3]; alone, 10.0 mg/kg per os): -8.3%
Activity in % ([3]; alone, 20.0 mg/kg per os): 23.2%
Activity in % ([3]; alone, 30.0 mg/kg per os): 45.8%
Activity in % ([3]; alone, 40.0 mg/kg per os): 67.5%

CN1C(C(=O)Nc2ccccn2)=C(O)c2ccccc2S1(=O)=O [Piroxicam]
LD50 [1]: 350 mg/kg
ED50 [2, 9]: 3.46 mg/kg
inhibition in vivo at 1 mg/kg ([2]; Mus musculus, po, alone, 1.0 mg/kg per os): 38.2%
inhibition in vivo at 3 mg/kg ([2]; Mus musculus, po, alone): 40%
inhibition in vivo at 4 mg/kg [2, 10]: 53.6%
inhibition in vivo at 5 mg/kg ([2]; Mus musculus, po, alone): 61.8%
inhibition in vivo at 10 mg/kg ([2]; Mus musculus, po, alone): 70.9%
inhibition in vivo at 20 mg/kg ([2]; Mus musculus, po, alone, 20.0 mg/kg per os): 49.1%
factor for the increase in activity of the analgetic action in combination with Flupirtin [2]: 2-15

COc1ccc2c(c1)c(CC(=O)N[C@@H](C=O)[C@@H](O)[C@H](O)[C@H](O)CO)c(C)n2C(=O)c1ccc(Cl)cc1 [Glucametacin]
factor for the increase in activity of the analgetic action in combination with Flupirtin [2]: 2-15

CC(=O)Oc1ccccc1C(=O)O [Acetylsalicylic Acid, acetylsalicylic acid]
LD50 [1]: 815 mg/kg
ED50 [2, 6]: 149 mg/kg
inhibition in vivo at 25 mg/kg [2, 7]: 11%
inhibition in vivo at 50 mg/kg [2, 7]: 30.1%
inhibition in vivo at 75 mg/kg [2, 7]: 39%
inhibition in vivo at 100 mg/kg [2, 7]: 41.1%
inhibition in vivo at 150 mg/kg [2, 7]: 43.2%
inhibition in vivo at 200 mg/kg [2, 7]: 59.6%
inhibition in vivo at 400 mg/kg [2, 7]: 71.2%
factor for the increase in activity of the analgetic action in combination with Flupirtin [2]: 2-15
